Laboratory results as given in US20130116277A1, “ALDO-KETO REDUCTASE SUBFAMILY 1C3 (AKR1C3) INHIBITORS” (priority 2007, published 2013).
Several values for one entry are separate records, joined by “and”; a condition that tells them apart may be missing. Equal values may be shown once. Read-outs that look alike come from different tables or passages of the source.

What was measured:
ER-alpha = target: T1, ER-alpha (Homo sapiens, UniProt P03372); test: ER-alpha transactivation (ERE-LUC luciferase) in HEK-293 cells; assay type: cell-based; conditions: for EC50: read-out: Agonist ER-α; for IC50: antagonist mode, in combination with estradiol, read-out: Antagonist ER-α;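 on all read-outs here: HEK-293 cells co-transfected with an ER-alpha expression plasmid, an ERE-driven firefly luciferase reporter and a CMV Renilla control, with the firefly signal normalized to Renilla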
T1 construct: expressed in transfected cells; host or cells: HEK-293
T1 sequence (P03372 1-595): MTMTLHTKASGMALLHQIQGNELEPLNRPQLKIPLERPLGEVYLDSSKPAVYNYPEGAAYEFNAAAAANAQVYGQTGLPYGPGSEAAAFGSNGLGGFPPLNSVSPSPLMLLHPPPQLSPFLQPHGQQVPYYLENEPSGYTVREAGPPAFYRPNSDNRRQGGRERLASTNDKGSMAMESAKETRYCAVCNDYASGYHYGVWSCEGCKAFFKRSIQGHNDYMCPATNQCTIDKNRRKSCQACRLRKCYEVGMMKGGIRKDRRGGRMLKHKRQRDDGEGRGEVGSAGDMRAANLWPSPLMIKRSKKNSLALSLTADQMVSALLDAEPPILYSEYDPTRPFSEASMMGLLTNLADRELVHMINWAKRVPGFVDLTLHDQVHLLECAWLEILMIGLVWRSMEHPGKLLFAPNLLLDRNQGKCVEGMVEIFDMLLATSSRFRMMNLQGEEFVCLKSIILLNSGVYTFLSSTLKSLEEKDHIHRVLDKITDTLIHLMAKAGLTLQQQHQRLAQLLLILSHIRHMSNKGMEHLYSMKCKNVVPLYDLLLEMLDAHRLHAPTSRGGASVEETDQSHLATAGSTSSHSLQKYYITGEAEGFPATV

ER-α = target: T2, ER-α (Homo sapiens, UniProt P03372); test: ER-α ligand binding domain competitive binding with [3H]Estradiol
T2 sequence (P03372 311-547 limits assumed): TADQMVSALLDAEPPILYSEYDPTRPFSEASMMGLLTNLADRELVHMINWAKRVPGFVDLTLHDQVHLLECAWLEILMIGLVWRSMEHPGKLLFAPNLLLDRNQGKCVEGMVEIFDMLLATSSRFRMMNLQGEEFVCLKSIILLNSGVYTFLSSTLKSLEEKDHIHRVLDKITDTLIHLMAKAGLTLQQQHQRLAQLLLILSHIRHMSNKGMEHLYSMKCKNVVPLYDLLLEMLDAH

AKR1C3 [1] = target: T3, AKR1C3 (Homo sapiens, UniProt P42330); test: Purified AKR1C3 enzyme assay, [14C]-A'dione to testosterone, TLC based; assay type: biochemical; set-up: GST (N); made in house; host or cells: bacterial culture, IPTG induced (E. coli BL21-DE3 is named only for the crystallography preparation)
T3 sequence (P42330 1-323): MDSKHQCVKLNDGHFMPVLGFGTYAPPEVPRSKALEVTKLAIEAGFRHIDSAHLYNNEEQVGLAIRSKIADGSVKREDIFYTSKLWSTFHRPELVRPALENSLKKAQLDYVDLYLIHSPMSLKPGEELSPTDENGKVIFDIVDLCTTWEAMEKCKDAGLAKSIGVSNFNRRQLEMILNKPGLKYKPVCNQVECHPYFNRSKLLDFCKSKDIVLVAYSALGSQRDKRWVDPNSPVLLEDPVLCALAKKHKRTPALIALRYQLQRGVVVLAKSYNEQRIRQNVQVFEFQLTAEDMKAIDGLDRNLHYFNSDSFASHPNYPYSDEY
Protocol: Perkin Elmer; […] American Radiolabeled Chemicals, St. Louis, Mo.). The reaction was stopped by the addition of 400 μl ethyl acetate, vortexed, and spun for […] at 2000 rpm. The upper layer was transferred to a new tube and air dried. The pellet was resuspended in 25 μl of methanol, spotted on TLC plates and fractionated in TLC chamber with 3:1 chloroform:ethyl acetate. Once the mobile phase reached the top, the plates were dried and exposed to a phosphoimager screen overnight. […] Perkin Elmer) was incubated at 37° C. for 60 min. The reaction was stopped by the addition of 400 μl ethyl acetate, vortexed, and spun for […] at 2000 rpm. The upper layer was transferred to a new tube and air dried. The pellet was resuspended in 25 μl of methanol, spotted on TLC plates and fractionated in TLC chamber with 3:1 chloroform:ethyl acetate. Once the mobile phase reached the top, the plates were dried and exposed to a phosphoimager screen overnight.

ER-β = ER-β (Homo sapiens, UniProt Q92731); test: ER-β ligand binding domain competitive binding with [3H]Estradiol
Sequence of ER-β (Q92731 264-498 limits assumed, species assumed): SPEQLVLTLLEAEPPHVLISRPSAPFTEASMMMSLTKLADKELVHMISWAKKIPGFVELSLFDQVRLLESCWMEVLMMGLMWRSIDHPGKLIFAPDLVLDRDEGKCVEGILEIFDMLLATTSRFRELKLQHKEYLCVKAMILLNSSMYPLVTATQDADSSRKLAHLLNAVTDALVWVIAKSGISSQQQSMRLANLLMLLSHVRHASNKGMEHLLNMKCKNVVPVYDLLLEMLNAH

ER-beta = target: T4, ER-beta (Homo sapiens, UniProt Q92731); test: ER-beta transactivation (ERE-LUC luciferase) in HEK-293 cells; assay type: cell-based; conditions: for EC50: read-out: Agonist ER-β; for IC50: antagonist mode, in combination with estradiol, read-out: Antagonist ER-β;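 on all read-outs here: HEK-293 cells transiently transfected with an ER-β expression plasmid and ERE-LUC reporter, firefly luciferase read-out normalized to co-transfected Renilla luciferase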
T4 construct: expressed in transfected cells; host or cells: HEK-293
T4 sequence (Q92731 whole entry, species assumed): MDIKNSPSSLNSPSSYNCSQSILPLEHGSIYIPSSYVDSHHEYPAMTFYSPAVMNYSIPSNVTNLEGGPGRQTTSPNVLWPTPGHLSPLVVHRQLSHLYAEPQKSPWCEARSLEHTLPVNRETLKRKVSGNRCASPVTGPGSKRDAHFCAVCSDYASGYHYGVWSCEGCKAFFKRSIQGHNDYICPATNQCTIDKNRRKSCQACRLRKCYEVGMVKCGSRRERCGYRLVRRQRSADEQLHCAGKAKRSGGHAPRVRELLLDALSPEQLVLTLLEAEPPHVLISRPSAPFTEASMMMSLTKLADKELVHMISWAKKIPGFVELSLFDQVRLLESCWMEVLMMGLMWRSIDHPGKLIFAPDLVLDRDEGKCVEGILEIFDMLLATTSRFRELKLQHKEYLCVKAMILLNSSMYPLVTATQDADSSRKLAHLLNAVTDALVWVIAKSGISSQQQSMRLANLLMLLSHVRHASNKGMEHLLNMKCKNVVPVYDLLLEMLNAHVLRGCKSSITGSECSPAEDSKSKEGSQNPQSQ

AKR1C3 [2] = target: T3, AKR1C3; test: cell-based
Protocol: AKR1C3 expression was checked by Western blot to ensure that the cells over-express AKR1C3. […] Medium was changed to RPMI+1% csFBS without phenol red and maintained in this medium for 3 days to reduce basal hormone levels. […] The data was plotted in SigmaPlot (Systat Software Inc.) and the IC50 values for inhibitors were calculated.
HEK-293 cells stably transfected with AKR1C3 were plated in 24 well plates and were maintained in RPMI+1% csFBS without phenol red for 2 days to reduce the basal steroid levels.

[3] = Liver microsome incubation (HLM Phase I and Phase I + II), LC-MS/MS; assay type: in vitro ADME, human; conditions: for microsomal CLint: human, human liver microsomes
Protocol: Stock solutions of prespective AKR1C3 inhibitors were prepared in DMSO at 5 mM and were incubated with liver microsomes (0.1 mg/mL). Incubations were conducted at 37° C. in a shaking water bath for 10 minutes (microsomes). Incubation durations were selected based on time course study (microsomes) or published literature (recombinant enzymes). Prepared samples were analyzed using LC-MS/MS.

[4] = 10 μM inhibitor, purified AKR1C3 TLC based enzyme assay, read-out: AKR1C3 inhibition at 10 μM
[5] = read-out: % inhibition from control HSD-5 (10 uM)
[6] = HLM Phase I + II, read-out: HLM Phase I + II CLint
[7] = HLM Phase I, read-out: HLM Phase I CLint

SMILES	EC50 (ER-alpha; agonist mode, drug alone) [nM]	IC50 (ER-alpha) [nM]	Ki (ER-α) [nM]	inhibition at 10 µM (AKR1C3 [1]; [4]) [%]	inhibition at 10 µM (AKR1C3 [1]; [5]) [%]	Ki (ER-β) [nM]	EC50 (ER-beta; agonist mode, drug alone) [nM]	IC50 (ER-beta) [nM]	IC50 (AKR1C3 [2]) [nM]	HLM Phase I CLint ([3]; HLM Phase I)	HLM Phase I T-1/2 ([3]; HLM Phase I)	HLM Phase I + II T-1/2 ([3]; HLM Phase I + II)	microsomal CLint [3, 6] [µL/min/mg]	microsomal CLint [3, 7] [µL/min/mg]	Agonist ER-α (ER-alpha; agonist mode, drug alone)	HLM Phase I + II CLint ([3]; HLM Phase I + II) [µL/min/mg]	Agonist ER-β (ER-beta; agonist mode, drug alone)
O=c1c2ccc(O)cc2c(-c2ccc(O)cc2)cn1-c1ccc(O)cc1 [Compound 6, 6-hydroxy-2,4-bis(4-hydroxyphenyl)isoquinolin-1(2H)-one]	> 10000	> 10000	1420	0	0	56.2	> 10000	1950									
COc1ccc(-c2cn(-c3ccc(CO)cc3)c(=O)c3ccc(OC)cc23)cc1 [Compound 10, 2-(4-hydroxymethyl)phenyl-6-methoxy-4-(4-methoxyphenyl)-isoquinolin-1(2H)-one]	> 10000	> 10000	> 1510	17	17	> 2200	> 10000	> 10000									
O=c1c2ccc(O)cc2c(-c2ccc(O)cc2)cn1-c1ccc(CBr)cc1 [Compound 11, 2-(4-bromomethyl)phenyl-6-hydroxy-4-(4-hydroxyphenyl)isoquinolin-1(2H)-one]	> 10000	> 10000		55	55	> 2200	> 10000	> 10000	5180	119 µL/min/mg	8.23 min and 5.90 min	5.0 min	138	84.1			
O=c1c2ccc(O)cc2c(-c2ccc(O)cc2)cn1-c1ccc(CO)cc1 [Compound 14, 6-hydroxy-2-(4-(hydroxymethyl)phenyl)-4-(4-hydroxyphenyl)isoquinolin-1(2H)-one]	> 10000	> 10000	> 1510			> 2200	> 10000	> 10000	1320								
COc1ccc(-c2cn(-c3ccc(O)cc3)c(=O)c3ccc(O)cc23)cc1 [Compound 15b]	> 10000	> 10000	2100		47	252	> 10000	128			28.3 min	3.7 min	188	24.5			
O=c1c2c(O)cc(O)cc2c(-c2ccccc2)cn1-c1ccc(O)cc1 [Compound 15h, 6,8-dihydroxy-2-(4-hydroxyphenyl)-4-phenylisoquinolin-1(2H)-one]	> 10000	2030			0	3.03	> 10000	53.4	6640		87.1 min	11.4 min	60.7	7.9			
CCOC(=O)/C=C/c1cn(-c2ccc(OC)cc2)c(=O)c2c(O)cc(OC)cc12 [Compound 15j]	> 10000	> 10000	> 1510		10	> 2200	> 10000	> 10000									
O=C(O)/C=C/c1cn(-c2ccc(O)cc2)c(=O)c2ccc(O)cc12 [Compound 15k]			> 151		12	> 220											
O=C(O)/C=C/c1cn(-c2ccc(O)cc2)c(=O)c2c(O)cc(O)cc12 [Compound 15l, (E)-3-(6,8-dihydroxy-2-(4-hydroxyphenyl)-1-oxo-1,2-dihydroisoquinolin-4-yl)acrylic acid]			> 1510			613			1710								
O=c1c2ccc(O)cc2c(-c2ccc(C(F)(F)F)cc2)cn1-c1ccc(CBr)c(O)c1 [Compound 26, 2-(4-(bromomethyl)-3-hydroxyphenyl)-6-hydroxy-4-(4-(trifluoromethyl)phenyl)isoquinolin-1(2H)-one]	> 10000	> 10000	> 1510	50	50	> 2200	> 10000	> 10000	289								
O=c1c2ccc(O)cc2c(-c2ccc(C(F)(F)F)cc2)cn1-c1ccc(C(F)(F)F)cc1 [Compound 30, 6-hydroxy-2,4-bis(4-(trifluoromethyl)phenyl)isoquinolin-1(2H)-one]	> 10000	> 10000	> 1510	30	30	> 2200	> 10000	> 10000			102.3 min	7.9 min	88.1	6.8			
O=c1c2ccc(O)cc2c(-c2ccc(C(F)(F)F)cc2)cn1-c1ccc(F)cc1 [Compound 34, 2-(4-fluorophenyl)-6-hydroxy-4-(4-(trifluoromethyl)phenyl)isoquinolin-1(2H)-one]	> 10000	> 10000	> 1510	10	10	> 2200	> 10000	> 10000									
COc1ccc(-n2cc(-c3ccc(C(F)(F)F)cc3)c3cc(OC)ccc3c2=O)cc1 [Compound 35, 6-methoxy-2-(4-methoxyphenyl)-4-(4-(trifluoromethyl)phenyl)isoquinolin-1(2H)-one]	> 10000	> 10000	> 1510	0	0	> 2200	> 10000	> 10000									
O=c1c2c(O)cc(O)cc2c(Br)cn1-c1cccc(O)c1 [ZW-315-047]		1720	503		30	7.23		2210		20.16 µL/min/mg and 19.5 µL/min/mg and 23.7 µL/min/mg	41.58 min and 33.55 min and 35.5 min and 29.3 min	1.56 min and 1.5 min	442	16	Partial agonist	460	Partial agonist
